Laboratory results as given in patent US8952024B2, “Herbicidal pyrimidone derivatives” (E I du Pont de Nemours and Company, priority 2009, dated 2015).

Experiments:
Assay in all cases: Test C plant response
Assay type in all cases: in vivo
Conditions in all cases: Postemergence, scale 0 to 100
[1] = system: buckwheat (wild buckwheat, Polygonum convolvulus)
How it was run: (§1)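 Efficacy is a visual percent-control score (0 none, 100 complete), judged against controls 14 days after application. Compounds go on in a non-phytotoxic solvent carrier with surfactant. A dash marks a missing result.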

[2] = system: wild radish (Raphanus raphanistrum)
How it was run: as §1

[3] = system: spring wheat (Triticum aestivum)
How it was run: as §1

[4] = system: winter wheat (Triticum aestivum)
How it was run: as §1

[5] = system: bromegrass (downy bromegrass, Bromus tectorum)
How it was run: as §1

wild oat (Avena fatua) = system: wild oat (Avena fatua)
How it was run: as §1

[6] = system: wild mustard (Sinapis arvensis)
How it was run: as §1

[7] = system: winter barley (Hordeum vulgare)
How it was run: as §1

[8] = system: galium (catchweed bedstraw, Galium aparine)
How it was run: as §1

[9] = system: chickweed (common chickweed, Stellaria media)
How it was run: as §1

[10] = system: green foxtail (Setaria viridis)
How it was run: as §1

[11] = system: field poppy (Papaver rhoeas)
How it was run: as §1

[12] = system: Russian thistle (Salsola iberica)
How it was run: as §1

[13] = system: spring barley (Hordeum vulgare)
How it was run: as §1

3-cyclohexyl-5-[(2-hydroxy-6-oxo-1-cyclohexen-1-yl)carbonyl]-2-phenyl-4(3H)-pyrimidinone [Compound 128]
Plant response rating: Buckwheat, Wild ([1]; 31 g ai/ha): 70
Plant response rating: Buckwheat, Wild ([1]; 16 g ai/ha): 65
Plant response rating: Buckwheat, Wild ([1]; 62 g ai/ha): 80
Plant response rating: Buckwheat, Wild ([1]; 125 g ai/ha): 80
Plant response rating: Radish, Wild ([2]; 31 g ai/ha): 95
Plant response rating: Radish, Wild ([2]; 16 g ai/ha): 95
Plant response rating: Radish, Wild ([2]; 62 g ai/ha): 95
Plant response rating: Radish, Wild ([2]; 125 g ai/ha): 95
Plant response rating: Wheat, Spring ([3]; 31 g ai/ha): 20
Plant response rating: Wheat, Spring ([3]; 16 g ai/ha): 5
Plant response rating: Wheat, Spring ([3]; 62 g ai/ha): 35
Plant response rating: Wheat, Spring ([3]; 125 g ai/ha): 40
Plant response rating: Wheat, Winter ([4]; 31 g ai/ha): 30
Plant response rating: Wheat, Winter ([4]; 16 g ai/ha): 0
Plant response rating: Wheat, Winter ([4]; 62 g ai/ha): 30
Plant response rating: Wheat, Winter ([4]; 125 g ai/ha): 35
Plant response rating: Bromegrass, Downy ([5]; 31 g ai/ha): 50
Plant response rating: Bromegrass, Downy ([5]; 16 g ai/ha): 30
Plant response rating: Bromegrass, Downy ([5]; 62 g ai/ha): 65
Plant response rating: Bromegrass, Downy ([5]; 125 g ai/ha): 65
Plant response rating: Oat, Wild (wild oat (Avena fatua); 31 g ai/ha): 25
Plant response rating: Oat, Wild (wild oat (Avena fatua); 62 g ai/ha): 50
Plant response rating: Oat, Wild (wild oat (Avena fatua); 125 g ai/ha): 70
Plant response rating: Mustard, Wild ([6]; 31 g ai/ha): 98
Plant response rating: Mustard, Wild ([6]; 16 g ai/ha): 98
Plant response rating: Mustard, Wild ([6]; 62 g ai/ha): 98
Plant response rating: Mustard, Wild ([6]; 125 g ai/ha): 100
Plant response rating: Barley, Winter ([7]; 31 g ai/ha): 20
Plant response rating: Barley, Winter ([7]; 16 g ai/ha): 0
Plant response rating: Barley, Winter ([7]; 62 g ai/ha): 40
Plant response rating: Barley, Winter ([7]; 125 g ai/ha): 60
Plant response rating: Galium ([8]; 31 g ai/ha): 30
Plant response rating: Galium ([8]; 16 g ai/ha): 20
Plant response rating: Galium ([8]; 62 g ai/ha): 65
Plant response rating: Galium ([8]; 125 g ai/ha): 65
Plant response rating: Chickweed ([9]; 31 g ai/ha): 95
Plant response rating: Chickweed ([9]; 16 g ai/ha): 95
Plant response rating: Chickweed ([9]; 62 g ai/ha): 98
Plant response rating: Chickweed ([9]; 125 g ai/ha): 100
Plant response rating: Foxtail, Green ([10]; 31 g ai/ha): 95
Plant response rating: Foxtail, Green ([10]; 16 g ai/ha): 95
Plant response rating: Foxtail, Green ([10]; 62 g ai/ha): 95
Plant response rating: Foxtail, Green ([10]; 125 g ai/ha): 95
Plant response rating: Field Poppy ([11]; 31 g ai/ha): 30
Plant response rating: Field Poppy ([11]; 16 g ai/ha): 20
Plant response rating: Field Poppy ([11]; 62 g ai/ha): 40
Plant response rating: Field Poppy ([11]; 125 g ai/ha): 70
Plant response rating: Russian Thistle ([12]; 31 g ai/ha): 80
Plant response rating: Russian Thistle ([12]; 16 g ai/ha): 80
Plant response rating: Russian Thistle ([12]; 62 g ai/ha): 95
Plant response rating: Russian Thistle ([12]; 125 g ai/ha): 95
Plant response rating: Barley, Spring ([13]; 31 g ai/ha): 15
Plant response rating: Barley, Spring ([13]; 16 g ai/ha): 0
Plant response rating: Barley, Spring ([13]; 62 g ai/ha): 20
Plant response rating: Barley, Spring ([13]; 125 g ai/ha): 30

COc1ccc(-n2c(-c3ccccc3)ncc(C(=O)C3=C(O)CCCC3=O)c2=O)cc1 [Compound 4, 5-[(2-hydroxy-6-oxo-cyclohexen-1-yl)carbonyl]-3-(4-methoxyphenyl)-2-phenyl-4(3H)-pyrimidinone]
Plant response rating: Buckwheat, Wild ([1]; 31 g ai/ha): 95
Plant response rating: Buckwheat, Wild ([1]; 125 g ai/ha): 100
Plant response rating: Radish, Wild ([2]; 31 g ai/ha): 80
Plant response rating: Radish, Wild ([2]; 125 g ai/ha): 95
Plant response rating: Wheat, Spring ([3]; 31 g ai/ha): 15
Plant response rating: Wheat, Spring ([3]; 125 g ai/ha): 20
Plant response rating: Wheat, Winter ([4]; 31 g ai/ha): 0
Plant response rating: Wheat, Winter ([4]; 125 g ai/ha): 20
Plant response rating: Bromegrass, Downy ([5]; 31 g ai/ha): 35
Plant response rating: Bromegrass, Downy ([5]; 125 g ai/ha): 40
Plant response rating: Oat, Wild (wild oat (Avena fatua); 31 g ai/ha): 20
Plant response rating: Oat, Wild (wild oat (Avena fatua); 125 g ai/ha): 50
Plant response rating: Mustard, Wild ([6]; 31 g ai/ha): 98
Plant response rating: Mustard, Wild ([6]; 125 g ai/ha): 100
Plant response rating: Barley, Winter ([7]; 31 g ai/ha): 5
Plant response rating: Barley, Winter ([7]; 125 g ai/ha): 35
Plant response rating: Galium ([8]; 31 g ai/ha): 65
Plant response rating: Galium ([8]; 125 g ai/ha): 90
Plant response rating: Chickweed ([9]; 31 g ai/ha): 98
Plant response rating: Chickweed ([9]; 125 g ai/ha): 100
Plant response rating: Foxtail, Green ([10]; 31 g ai/ha): 70
Plant response rating: Foxtail, Green ([10]; 125 g ai/ha): 95
Plant response rating: Field Poppy ([11]; 31 g ai/ha): 30
Plant response rating: Field Poppy ([11]; 125 g ai/ha): 50
Plant response rating: Russian Thistle ([12]; 31 g ai/ha): 70
Plant response rating: Russian Thistle ([12]; 125 g ai/ha): 95
Plant response rating: Barley, Spring ([13]; 31 g ai/ha): 10
Plant response rating: Barley, Spring ([13]; 125 g ai/ha): 15

Cc1ccc(-n2c(-c3ccccc3)ncc(C(=O)C3=C(O)CCCC3=O)c2=O)cc1 [Compound 8]
Plant response rating: Buckwheat, Wild ([1]; 31 g ai/ha): 65
Plant response rating: Buckwheat, Wild ([1]; 16 g ai/ha): 65
Plant response rating: Buckwheat, Wild ([1]; 62 g ai/ha): 65
Plant response rating: Buckwheat, Wild ([1]; 125 g ai/ha): 65
Plant response rating: Radish, Wild ([2]; 31 g ai/ha): 95
Plant response rating: Radish, Wild ([2]; 16 g ai/ha): 85
Plant response rating: Radish, Wild ([2]; 62 g ai/ha): 98
Plant response rating: Radish, Wild ([2]; 125 g ai/ha): 100
Plant response rating: Wheat, Spring ([3]; 31 g ai/ha): 5
Plant response rating: Wheat, Spring ([3]; 16 g ai/ha): 5
Plant response rating: Wheat, Spring ([3]; 62 g ai/ha): 5
Plant response rating: Wheat, Spring ([3]; 125 g ai/ha): 20
Plant response rating: Wheat, Winter ([4]; 31 g ai/ha): 10
Plant response rating: Wheat, Winter ([4]; 16 g ai/ha): 10
Plant response rating: Wheat, Winter ([4]; 62 g ai/ha): 25
Plant response rating: Wheat, Winter ([4]; 125 g ai/ha): 30
Plant response rating: Bromegrass, Downy ([5]; 31 g ai/ha): 25
Plant response rating: Bromegrass, Downy ([5]; 16 g ai/ha): 10
Plant response rating: Bromegrass, Downy ([5]; 62 g ai/ha): 35
Plant response rating: Bromegrass, Downy ([5]; 125 g ai/ha): 40
Plant response rating: Oat, Wild (wild oat (Avena fatua); 31 g ai/ha): 20
Plant response rating: Oat, Wild (wild oat (Avena fatua); 16 g ai/ha): 20
Plant response rating: Oat, Wild (wild oat (Avena fatua); 62 g ai/ha): 30
Plant response rating: Oat, Wild (wild oat (Avena fatua); 125 g ai/ha): 30
Plant response rating: Mustard, Wild ([6]; 31 g ai/ha): 95
Plant response rating: Mustard, Wild ([6]; 62 g ai/ha): 98
Plant response rating: Mustard, Wild ([6]; 125 g ai/ha): 98
Plant response rating: Barley, Winter ([7]; 31 g ai/ha): 20
Plant response rating: Barley, Winter ([7]; 16 g ai/ha): 0
Plant response rating: Barley, Winter ([7]; 62 g ai/ha): 20
Plant response rating: Barley, Winter ([7]; 125 g ai/ha): 40
Plant response rating: Galium ([8]; 31 g ai/ha): 75
Plant response rating: Galium ([8]; 16 g ai/ha): 50
Plant response rating: Galium ([8]; 62 g ai/ha): 90
Plant response rating: Galium ([8]; 125 g ai/ha): 90
Plant response rating: Chickweed ([9]; 31 g ai/ha): 95
Plant response rating: Chickweed ([9]; 16 g ai/ha): 95
Plant response rating: Chickweed ([9]; 62 g ai/ha): 95
Plant response rating: Chickweed ([9]; 125 g ai/ha): 98
Plant response rating: Foxtail, Green ([10]; 31 g ai/ha): 95
Plant response rating: Foxtail, Green ([10]; 16 g ai/ha): 95
Plant response rating: Foxtail, Green ([10]; 62 g ai/ha): 95
Plant response rating: Foxtail, Green ([10]; 125 g ai/ha): 98
Plant response rating: Field Poppy ([11]; 31 g ai/ha): 20
Plant response rating: Field Poppy ([11]; 16 g ai/ha): 0
Plant response rating: Field Poppy ([11]; 62 g ai/ha): 40
Plant response rating: Field Poppy ([11]; 125 g ai/ha): 60
Plant response rating: Russian Thistle ([12]; 31 g ai/ha): 90
Plant response rating: Russian Thistle ([12]; 16 g ai/ha): 90
Plant response rating: Russian Thistle ([12]; 62 g ai/ha): 95
Plant response rating: Russian Thistle ([12]; 125 g ai/ha): 95
Plant response rating: Barley, Spring ([13]; 31 g ai/ha): 10
Plant response rating: Barley, Spring ([13]; 16 g ai/ha): 0
Plant response rating: Barley, Spring ([13]; 62 g ai/ha): 20
Plant response rating: Barley, Spring ([13]; 125 g ai/ha): 30
